From US20200255844A1, “MULTIPLEXED RECEPTOR-LIGAND INTERACTION SCREENS” (THE REGENTS OF THE UNIVERSITY OF CALIFORNIA, priority 2017, published 2020)

Experiments:
MOR180-1 = target: T1, MOR180-1 (Mus musculus, UniProt Q8VGS3); assay: High-throughput multiplexed odorant screening (Smell-seq), barcode RNA-seq readout; type: cell-based; conditions: OR MOR180-1; pair called as hit, FDR=1%
T1 construct: protein trafficking tags (N); expressed in transfected cells; host or cells: HEK293T-derived cells (Mukku3a), PiggyBac transposon, Tet-On inducible
T1 sequence (Q8VGS3 whole entry): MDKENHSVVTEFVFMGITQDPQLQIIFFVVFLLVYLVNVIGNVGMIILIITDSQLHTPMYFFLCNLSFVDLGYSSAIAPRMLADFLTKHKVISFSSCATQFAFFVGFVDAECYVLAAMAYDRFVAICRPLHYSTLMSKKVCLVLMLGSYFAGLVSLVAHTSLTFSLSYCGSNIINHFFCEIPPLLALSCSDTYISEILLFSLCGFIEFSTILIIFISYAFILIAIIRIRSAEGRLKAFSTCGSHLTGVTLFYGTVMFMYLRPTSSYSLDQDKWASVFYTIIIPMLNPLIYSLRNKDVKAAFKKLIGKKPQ
Text: (§1) We subsequently screened 182 odorants at three concentrations in triplicate against the OR cell library, the equivalent of ˜85,000 individual luciferase assays including controls (FIG. 10A, Table 2). Each 96-well plate in the assay contained positive control odorants and solvent DMSO wells for normalization (FIG. 16). We used the EdgeR software package to determine differentially responsive ORs based on a negative binomial model of barcode counts. We found 114 OR-odorant interactions (out of 7,200 possible), 81 of which are novel, and 24 interactions with 15 orphan receptors (FIG. 10C, FIG. 17 and Supplementary Table 4) (FDR=1%; Benjamini-Hochberg correction). Overall 28 of 39 receptors were activated by at least one odorant, and 68 of 182 odorants activated at least one OR (Table 4). We chose 37 interactions of at least 1.2 fold induction to test individually with a previously developed transient OR assay that has several important differences (FIG. 18). Of the 28 interactions called as hits at an FDR of 1%, 21 of them replicated in this orthogonal system (FIG. 17). […] Conversely, we also detect 14 interactions that this previous study tested, but called negative.

MOR132-1 = target: T2, MOR132-1 (Mus musculus, UniProt Q8VFM9); assay: as above; type: cell-based; conditions: OR MOR132-1; pair called as hit, FDR=1%
T2 construct: protein trafficking tags (N); expressed in transfected cells; host or cells: HEK293T-derived cells (Mukku3a), PiggyBac transposon, Tet-On inducible
T2 sequence (Q8VFM9 whole entry): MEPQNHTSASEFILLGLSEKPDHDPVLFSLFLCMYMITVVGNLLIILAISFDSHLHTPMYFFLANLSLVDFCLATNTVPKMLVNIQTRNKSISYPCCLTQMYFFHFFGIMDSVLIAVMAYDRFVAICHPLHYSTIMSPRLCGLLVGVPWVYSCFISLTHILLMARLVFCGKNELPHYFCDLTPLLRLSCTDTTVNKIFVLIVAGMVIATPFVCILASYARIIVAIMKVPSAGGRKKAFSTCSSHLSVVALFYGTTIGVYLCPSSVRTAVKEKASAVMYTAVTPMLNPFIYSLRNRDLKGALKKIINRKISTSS
Text: as §1

MOR102-1 = assay: as above; type: cell-based, mouse; conditions: OR MOR102-1; pair called as hit, FDR=1%
Text: as §1

MOR30-1 = assay: as above; type: cell-based, mouse; conditions: OR MOR30-1; pair called as hit, FDR=1%
Text: as §1

MOR208-1 = assay: as above; type: cell-based, mouse; conditions: OR MOR208-1; pair called as hit, FDR=1%
Text: as §1

MOR120-1 = assay: as above; type: cell-based, mouse; conditions: OR MOR120-1; pair called as hit, FDR=1%
Text: as §1

MOR142-1 = assay: as above; type: cell-based, mouse; conditions: OR MOR142-1; pair called as hit, FDR=1%
Text: as §1

MOR189-1 = assay: as above; type: cell-based, mouse; conditions: OR MOR189-1; pair called as hit, FDR=1%
Text: as §1

MOR170-1 = assay: High-throughput multiplexed odorant screening (Smell-seq), 96-well, barcode RNA-seq readout; type: cell-based, mouse; conditions: OR MOR170-1; pair called as hit, FDR=1%
Experimental: 10. High-Throughput Odorant Screening
The OR library cell line was thawed from a liquid nitrogen frozen stock into a T-225 flask (Corning) three days before seeding into a 96-well plate for screening. The library was seeded at 6,666 cells per well in 100 ul of DMEM. 24 hours later a working concentration of 1 ug/ml of doxycycline in DMEM was added to the wells. 24 hours after induction, the media was removed from each plate and replaced with 25 ul of odorant diluted in OptiMEM. Each odor was added at three different concentrations (10 uM, 100 uM, 1 mM) in triplicate with the same amount of final DMSO (1%). Each plate contained two control odorants at a three concentration (10 uM, 100 uM, 1 mM) in triplicate and three wells containing 1% DMSO dissolved in media. The library was incubated with odorants for three hours in a cell culture incubator with the lids removed.
After odor incubation, media was pipetted out of the plates and cells were lysed by adding 25 uL of ice-cold Cells-to-cDNA II Lysis Buffer (Thermo Fisher) and pipetting up and down to homogenize and lyse cells. The lysate was then heated to 75° C. for 15 minutes and flash frozen with liquid nitrogen and kept at −80 C until further processing. Then 0.5 uL DNase I (New England Biolabs) was added to lysate, and incubated at 37° C. for 15 minutes. To anneal the RT primer, 5 ul of lysate from each well was combined with 2.5 ul of 10 mM dNTPs (New England Biosciences), 1 ul of 2 uM gene specific RT primer (OL003), and 1.5 ul of H2O. The reaction was heated to 65° C. for 5 min and cooled back down to 0° C. After annealing, 1 ul of M-MuLV Reverse Transcriptase (Enzymatics), 1 ul of buffer, and 0.25 ul of RNase Inhibitor (Enzymatics) were added to each reaction. Reactions were incubated at 42° C. for 60 min and the RT enzyme was heat inactivated at 85° C. for 10 min.
For each batch, qPCR was performed on a few wells (OL005F and OL013) with SYBR FAST qPCR Mastermix to determine the number of cycles necessary for PCR based library preparation. The reaction and cycling conditions are optimized as follows: 95° C. for 3 minutes, 40 cycles of 95° C. for 3 seconds and 60° C. for 20 seconds. After qPCR, 5 ul of each RT reaction was combined with 0.4 ul of 10 uM primers containing sequencing adaptors (OL005F and OL013), 10 ul of NEB-Next Q5 Mastermix (New England Biosciences) and 4.2 ul H2O, the PCR was carried out according to the manufacturer's protocol. The forward primer contains the P7 adaptor sequence and an index identifying the well in the assay and the reverse primer contains the P5 adaptor sequence and an index identifying the plate in the assay. PCR products were pooled together by plate and purified with the DNA Clean and Concentrator Kit. Library concentrations were quantified using a Tape Station 2200 and a Qubit (Thermo Fisher). The libraries were sequenced with two index reads and a single end 75-bp read on a NextSeq 500 in high-output mode (Illumina).
11. Analysis of Next-Generation Sequencing Data
Samples were identified via indexing by their PCR indexes adapters unique for each well (5′ end) and unique for each plate (3′ end). The well barcodes followed the 7 bp indexing scheme in (Illumina Sequencing Library Preparation for Highly Multiplexed Target Capture and Sequencing Matthias Meyer, Martin Kircher, Cold Spring Harb Protoc; 2010; doi:10.1101/pdb.prot5448). The plate indexing scheme followed the Illumina indexing scheme. Sequencing data was demultiplexed and 15 bp barcode sequences were counted with only exact matches by custom python and bash scripts.
12. Statistical Methods for Calling Hits
Count data was then analyzed using the differential expression package EdgeR. To filter out ORs with low representation, we set a cutoff that an OR had to contain at least 0.5% of the reads from more than 399 of the 1954 test samples. This filtered out 3 of 42 ORs which were underrepresented in the cell library (MOR172-1, MOR176-1 and MOR181-1). […]

MOR 199-1 = assay: High-throughput multiplexed odorant screening (Smell-seq), barcode RNA-seq readout; type: cell-based, mouse; conditions: OR MOR 199-1; pair called as hit, FDR=1%
Text: as §1

Olfr62 = assay: as above; type: cell-based, mouse; conditions: OR Olfr62; pair called as hit, FDR=1%
Text: as §1

With `CCCCC/C(=C\c1ccccc1)C(OC)OC` [a-Amylcinnamaldehyde dimethyl acetal] the “Minimum Activating Concentration” value (MOR180-1) was 1000 µM.
With `CC(=O)O[C@]1(C)CC[C@@]23C[C@@H]1C(C)(C)[C@@H]2CC[C@H]3C` [Cedryl acetate] the “Minimum Activating Concentration” value (MOR132-1) was 1000 µM, the “Minimum Activating Concentration” value (MOR102-1) was 1000 µM and the “Minimum Activating Concentration” value (MOR30-1) was 1000 µM. For the same compound, the “Minimum Activating Concentration” value (MOR208-1) was 1000 µM, the “Minimum Activating Concentration” value (MOR120-1) was 1000 µM and the “Minimum Activating Concentration” value (MOR142-1) was 1000 µM. The “Minimum Activating Concentration” value (MOR189-1) was 1000 µM.
For `CCc1occc(=O)c1O` [ethyl maltol], the “Minimum Activating Concentration” value (MOR170-1) was 1000 µM, the “Minimum Activating Concentration” value (MOR 199-1) was 100 µM and the “Minimum Activating Concentration” value (Olfr62) was 1000 µM.
